Laboratory results: patent publication US11591355B2 (Peloton Therapeutics, Inc., priority 2017, dated 2023)

These compounds were tested against T1, Human CD73 (Homo sapiens, UniProt P21589) (assay: CD73 Enzyme Assay). Details: not given.
T1 construct: purchased R&D Systems; host or cells: CHO cells
T1 sequence (P21589 27-549): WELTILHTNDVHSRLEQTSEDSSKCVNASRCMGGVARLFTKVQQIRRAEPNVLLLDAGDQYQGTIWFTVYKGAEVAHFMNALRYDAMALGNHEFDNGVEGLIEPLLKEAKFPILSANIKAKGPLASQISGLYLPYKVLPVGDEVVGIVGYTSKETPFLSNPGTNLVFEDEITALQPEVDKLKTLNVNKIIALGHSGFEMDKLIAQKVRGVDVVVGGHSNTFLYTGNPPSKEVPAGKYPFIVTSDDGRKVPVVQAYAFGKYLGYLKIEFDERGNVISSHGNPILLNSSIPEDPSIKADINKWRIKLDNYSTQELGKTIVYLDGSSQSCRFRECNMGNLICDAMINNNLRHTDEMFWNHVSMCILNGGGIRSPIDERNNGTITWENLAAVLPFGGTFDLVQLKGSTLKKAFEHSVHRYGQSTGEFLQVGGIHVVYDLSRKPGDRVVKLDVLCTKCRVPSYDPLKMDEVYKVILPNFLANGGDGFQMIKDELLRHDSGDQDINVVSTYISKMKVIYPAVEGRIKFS
Format: biochemical
Work on `CCOP(=O)(O)COC[C@H]1O[C@@H](n2cnc3c(NCc4ccccc4)ncnc32)[C@H](O)[C@@H]1O` [Compound 7, [(2R,3S,4R,5R)-5-[6-(benzylamino)purin-9-yl]-3,4-dihydroxy-tetrahydrofuran-2-yl]-methoxymethyl-ethoxy-phosphinic acid] yielded an IC50 greater than 1000 nM.

Same assay, conditions: 0.25 nM hCD73, 25 μM AMP, kinetic read at 360 nm; read-out: CD73 Enzyme Assay IC50
Compound `Nc1ncnc2c1ncn2[C@@H]1O[C@H](COCP(=O)(O)O)[C@@H](O)[C@H]1O` [Compound 2, [(2R,3S,4R,5R)-5-(6-aminopurin-9-yl)-3,4-dihydroxy-tetrahydrofuran-2-yl]methoxymethyl-phosphonic acid] has an IC50 greater than 1000 nM. `CNc1nc(NCc2ccccc2)c2ncn([C@@H]3O[C@H](COCP(=O)(O)O)[C@@H](O)[C@H]3O)c2n1` [Compound 5, [(2R,3S,4R,5R)-5-[6-(benzylamino)-2-(methylamino)purin-9-yl]-3,4-dihydroxy-tetrahydrofuran-2-yl]methoxymethyl-phosphonic acid] was tested, and the IC50 was greater than 1000 nM. `O=C(O)c1nc(NCc2ccccc2)c2ncn([C@@H]3O[C@H](COCP(=O)(O)O)[C@@H](O)[C@H]3O)c2n1` [Compound 6, 6-(benzylamino)-9-[(2R,3R,4S,5R)-3,4-dihydroxy-5-(phos-phonomethoxy-methyl)tetrahydro-furan-2-yl]purine-2-carboxylic acid] was tested, and the IC50 was greater than 1000 nM. `O=P(O)(O)COC[C@H]1O[C@@H](n2cnc3c(NCc4ccccc4)nc(-c4ccccc4)nc32)[C@H](O)[C@@H]1O` [Compound 8, [(2R,3S,4R,5R)-5-[6-(benzylamino)-2-phenyl-purin-9-yl]-3,4-dihydroxy-tetrahydrofuran-2-yl]methoxymethylphosphonic acid] gave an IC50 of 100 to 1000 nM. In the case of `O=P(O)(O)COC[C@H]1O[C@@H](n2cnc3c(NCc4ccccc4)nc(-c4cn[nH]c4)nc32)[C@H](O)[C@@H]1O` [Compound 10, [(2R,3S,4R,5R)-5-[6-(benzylamino)-2-(1H-pyrazol-4-yl)purin-9-yl]-3,4-dihydroxy-tetrahydrofuran-2-yl]-methoxymethylphos-phonic acid], the IC50 is reported as 100 to 1000 nM. With `CNc1ncnc2c1ncn2[C@@H]1O[C@H](COCP(=O)(O)O)[C@@H](O)[C@H]1O` [Compound 11, [(2R,3S,4R,5R)-3,4-dihydroxy-5-[6-(methylamino)purin-9-yl]tetrahydrofuran-2-yl]methoxymethyl-phosphonic acid] the IC50 was greater than 1000 nM. Compound `O=P(O)(O)COC[C@H]1O[C@@H](n2cnc3c(NCCO)ncnc32)[C@H](O)[C@@H]1O` [Compound 13, [(2R,3S,4R,5R)-3,4-dihydroxy-5-[6-(2-hydroxyethylamino)-purin-9-yl]tetrahydro-furan-2-yl]methoxy-methylphosphonic acid] has an IC50 greater than 1000 nM. In the case of `CC(C)Nc1nc(Cl)nc2c1ncn2[C@@H]1O[C@H](COCP(=O)(O)O)[C@H]2OC(C)(C)O[C@H]21` [Compound 14, [(3aR,4R,6R,6aR)-4-[2-chloro-6-(isopropyl-amino)purin-9-yl]-2,2-dimethyl-3a,4,6,6a-tetrahydrofuro[3,4-d] [1,3]dioxol-6-yl]-methoxymethylphos-phonic acid], the IC50 is reported as greater than 1000 nM. Work on `CCNc1ncnc2c1ncn2[C@@H]1O[C@H](COCP(=O)(O)O)[C@@H](O)[C@H]1O` [Compound 17, [(2R,3S,4R,5R)-5-[6-(ethylamino)purin-9-yl]-3,4-dihydroxy-tetrahydrofuran-2-yl]-methoxymethylphos-phonic acid] yielded an IC50 greater than 1000 nM. With `O=P(O)(O)COC[C@H]1O[C@@H](n2cnc3c(NCc4ccccn4)ncnc32)[C@H](O)[C@@H]1O` [Compound 19, [(2R,3S,4R,5R)-3,4-dihydroxy-5-[6-(2-pyridylmethylamino)-purin-9-yl]tetrahydro-furan-2-yl]methoxy-methylphosphonic acid] the IC50 was greater than 1000 nM. `O=P(O)(O)COC[C@H]1O[C@@H](n2cnc3c(NCc4ccccc4)nc(Cc4ccccc4)nc32)[C@H](O)[C@@H]1O` [Compound 22, [(2R,3S,4R,5R)-5-[2-benzyl-6-(benzyl-amino)purin-9-yl]-3,4-dihydroxy-tetrahydro-furan-2-yl]methoxy-methylphosphonic acid] showed an IC50 of 100 to 1000 nM. In the case of `O=P(O)(O)COC[C@H]1O[C@@H](n2cnc3c(NC4(c5ccccc5)CC4)ncnc32)[C@H](O)[C@@H]1O` [Compound 23], the IC50 is reported as greater than 1000 nM. In the case of `O=P(O)(O)COC[C@H]1O[C@@H](n2cnc3c(NC4CC4)ncnc32)[C@H](O)[C@@H]1O` [Compound 24, [(2R,3S,4R,5R)-5-[6-(cyclopropylamino)-purin-9-yl]-3,4-dihydroxy-tetrahydro-furan-2-yl]methoxy-methylphosphonic acid], the IC50 is reported as greater than 1000 nM. Compound `NCCNc1ncnc2c1ncn2[C@@H]1O[C@H](COCP(=O)(O)O)[C@@H](O)[C@H]1O` [Compound 25, [(2R,3S,4R,5R)-5-[6-(2-aminoethylamino)-purin-9-yl]-3,4-dihydroxy-tetrahydro-furan-2-yl]methoxy-methylphosphonic acid] has an IC50 greater than 1000 nM. In the case of `O=P(O)(O)COC[C@H]1O[C@@H](n2cnc3c(NCCCO)ncnc32)[C@H](O)[C@@H]1O` [Compound 26, [(2R,3S,4R,5R)-3,4-dihydroxy-5-[6-(3-hydroxypropylamino)-purin-9-yl]tetrahydro-furan-2-yl]methoxy-methylphosphonic acid], the IC50 is reported as greater than 1000 nM. Compound `O=P(O)(O)COC[C@H]1O[C@@H](n2cnc3c(NCc4cccnc4)ncnc32)[C@H](O)[C@@H]1O` [Compound 27, [(2R,3S,4R,5R)-3,4-dihydroxy-5-[6-(3-pyridylmethylamino)-purin-9-yl]tetrahydro-furan-2-yl]methoxy-methylphosphonic acid] has an IC50 greater than 1000 nM. `O=P(O)(O)COC[C@H]1O[C@@H](n2cnc3c(NCc4ccncc4)ncnc32)[C@H](O)[C@@H]1O` [Compound 28, [(2R,3S,4R,5R)-3,4-dihydroxy-5-[6-(4-pyridylmethylamino)-purin-9-yl]tetrahydro-furan-2-yl]methoxy-methylphosphonic acid] was tested, and the IC50 was greater than 1000 nM. For `O=P(O)(O)COC[C@H]1O[C@@H](n2cnc3c(NCCc4ccccc4)ncnc32)[C@H](O)[C@@H]1O` [Compound 29, [(2R,3S,4R,5R)-3,4-dihydroxy-5-[6-(2-phenylethylamino)-purin-9-yl]tetrahydro-furan-2-yl]methoxy-methylphosphonic acid], the IC50 was 100 to 1000 nM. `O=P(O)(O)COC[C@H]1O[C@@H](n2cnc3c(Nc4ccccc4)ncnc32)[C@H](O)[C@@H]1O` [Compound 30, [(2R,3S,4R,5R)-5-(6-anilinopurin-9-yl)-3,4-dihydroxy-tetrahydro-furan-2-yl]methoxy-methylphosphonic acid] gave an IC50 greater than 1000 nM. `CC(C)N(C)c1ncnc2c1ncn2[C@@H]1O[C@H](COCP(=O)(O)O)[C@@H](O)[C@H]1O` [Compound 31] gave an IC50 greater than 1000 nM. For `CC(C)(C)Nc1ncnc2c1ncn2[C@@H]1O[C@H](COCP(=O)(O)O)[C@@H](O)[C@H]1O` [Compound 33, [(2R,3S,4R,5R)-5-[6-(tert-butylamino)purin-9-yl]-3,4-dihydroxy-tetrahydrofuran-2-yl]-methoxymethylphos-phonic acid], the IC50 was greater than 1000 nM. Compound `O=P(O)(O)COC[C@H]1O[C@@H](n2cnc3c(NC4CCC4)ncnc32)[C@H](O)[C@@H]1O` [Compound 34, [(2R,3S,4R,5R)-5-[6-(cyclobutylamino)-purin-9-yl]-3,4-dihydroxy-tetrahydro-furan-2-yl]methoxy-methylphosphonic acid] has an IC50 of 100 to 1000 nM.
